Experimental data: patent US20220281930A1, “COMPOSITIONS AND METHODS FOR THE TREATMENT OF PATHOLOGICAL PAIN AND ITCH” (DUKE UNIVERSITY, priority 2019, published 2022)

How the values were obtained:
[1] = test system: neuronal [Cl—]i; assay: Clomeleon chloride imaging in rat primary cortical neurons; format: cell-based
Experimental: Chloride imaging of primary cultured cortical neurons was conducted as previously described (Kuner and Augustine, 2000, Neuron 27:447-459; Liedtke et al., 2013, Small 9:1066-1075; Yeo et al., 2009, J Neurosci 29:14652-14662). A Clomeleon expression plasmid was transfected into primary cortical neurons by electroporation (Amaxa Nucleofector Device). Transfected neurons were verified by yellow fluorescent protein (YFP) fluorescence, and ratiometric images (excitation at λ=434 nm, dual emission at λ=485 and 535 nm; for resting chloride, six stable frames at […] were captured, which were averaged) were acquired using RATIOTOOL program. Calibration of Clomeleon signals (535 nm/485 nm emission ratio) was performed by using tributyltin-nigericin to establish a standard curve, which was then normalized for measured intraneuronal pH to take into account the pH sensitivity of Clomeleon.

[2] = test system: KCC2 protein; assay: KCC2 immuno-staining morphometry of spinal cord dorsal horn; format: in vivo, mouse; conditions: KP 10 mg/kg; nerve constriction injury and CFA inflammatory pain models
Experimental: All mice were deeply anaesthetized with isoflurane and then transcardially perfused with ice-cold 4% paraformaldehyde in 0.1 M phosphate buffer, pH 7.4 (4% PFA). Dissected spinal cord samples were then post-fixed overnight in 4% PFA at 4° C., cryoprotected in a 20% sucrose solution in PBS at 4° C., frozen in Tissue-Tek OCT (Sakura), and stored at −80° C. until sectioning. Samples were sectioned at 20 μm using a cryostat (Microm HM 505N). The sections were blocked with 2% bovine serum albumin (BSA) in PBS with 0.3% Triton X-100 (Blocking solution) at room temperature for 1 h. The sections were treated with primary antibody in blocking solution at 4° C. overnight. The sections were washed three times followed by secondary antibody treatment at 4° C. for 2 hours. Anti-KCC2 antibody was validated as described above for immuno-cytochemistry. The goat anti-rabbit IgG Alexa Fluor 488 was obtained from Invitrogen (A-11008). […]
With the aforementioned findings and in view of the SCDH as the likely site of analgesic action of KP (Coull et al., 2003, Nature 424:938-942; Gagnon et al., 2013, Nat Med 19:1524-1528), SCDH KCC2 expression and function in nerve injury and response to KP was assessed. […] SCDH KCC2 protein expression was measured morphometrically after KCC2 immunolabeling using SCDH laminae I-II as the region-of-interest (FIG. 5B).

[3] = test system: EGABA; assay: Perforated patch EGABA in SCDH lamina-II neurons of treated mice; format: in vivo, mouse; conditions: slices of PSNL juvenile mice treated with KP 30 mg/kg
[4] = test system: δ-cat; assay: δ-cat nuclear translocation in primary neurons, immunolabeling morphometry; format: cell-based, rat; conditions: KP vs vehicle, FIG. 8C
Experimental: (§1) Immunocytochemistry labeling of cultured neuronal cells was carried out as previously described (Liedtke et al., 2013, Small 9, 1066-1075; Yeo et al., 2009, J Neurosci 29:14652-14662; Yeo et al., 2013, Proc Natl Acad Sci USA 110:4315-4320). Primary antibodies are shown in the antibody table. Anti-KCC2 primary antibodies were validated with developing rat primary cortical neurons; we observed an increase in staining pattern that tightly matched increase of KCC2 mRNA expression (Liedtke et al., 2013, Small 9:1066-1075; Yeo et al., 2009, J Neurosci 29:14652-14662.; Yeo et al., 2013, Proc Natl Acad Sci USA 110:4315-4320). Secondary antibodies used were goat anti-mouse IgG Alexa Fluor 594 (Invitrogen A11032) and goat anti-rabbit IgG Alexa Fluor 594 (Invitrogen A11012). DAPI stain was obtained from Sigma Aldrich (D9542). Stained cells were observed using an inverted confocal microscope (Zeiss LSM780).
(§2) We obtained stacks of images recorded at 0.35 μm intervals through separate channels with a 63× oil-immersion lens (NA, 1.40, refraction index, 1.45). Zen software (Zeiss) was used to construct composite images from each optical series by combining the images recorded through the different channels, and the same software was used to obtain Z projection images (image resolution: 1024×1024 pixels; pixel size: 0.11 μm). ImageJ was used for morphometry. […]

[5] = test system: ß-cat; assay: ß-cat nuclear translocation in primary neurons, immunolabeling; format: cell-based, rat; conditions: KP treatment
Experimental: as §1, §2

O=C1Cc2c([nH]c3ccc(Br)cc23)-c2ccccc2N1 [kenpaullone, 9-bromo-7,12-dihydro-indolo [3,2-d] [1]benzazepin-6(5H)-one]
KCC2 chloride transporter mediated chloride efflux ([1]; KP vs vehicle at 10 min and 20 min time-points): does not enhance
neuronal [Cl—]i ([1]; clomeleon, after KP treatment vs vehicle): robustly and significantly reduced
time to enhanced KCC2 gene expression and KCC2 chloride extrusion function ([1]; rat neurons, FIG. 2D): ≤ 3 h
KCC2 protein expression in SCDH [2]: increases KCC2 protein expression
EGABA [3]: significant hyperpolarization
δ-cat nuclear translocation [4]: significantly increases
catenin translocation into the nucleus (FIG. 9) [5]: significantly increases
